{"source": "patent US20230277538A1", "about": "“THERAPEUTICS FOR THE TREATMENT OF FSHD” (UCL BUSINESS LTD, priority 2020, published 2023)", "key": {"iC2C12-DUX4 myoblasts": {"tested_on": "iC2C12-DUX4 myoblasts", "experiment": "Cell viability (ATP assay, CellTiter-Glo) of dox-induced iC2C12-DUX4 myoblasts with death inhibitors", "assay_type": "cell-based, mouse", "conditions": "for increase in the number of viable cells: inhibitor present; for optimal dose from dose response: with or without doxycycline 200 ng/ml, 24 hours after dox induction", "protocol": "(A) Cell viability of iC2C12-DUX4 myoblasts at 48 h of induction without or with dox (200 ng/ml) and treatment with various concentrations of the pan-caspase inhibitor Z-VAD (μM). […] Ctrl: DMSO alone.\nFIG. 10: Role of necroptosis in the DUX4 mediated cell death. Several death inhibitors were added at different concentrations alone to iC2C12 myoblasts in presence or not of Doxycycline 200 ng/ml.\nFor myoblast experiments, iC2C12-Dux4 were seeded into white 96-well plates (3000 cells per well) in growth medium. After 24 h, DUX4 expression was induced by adding doxycycline (Sigma-Aldrich) at a final concentration of 50 to 1000 ng/mL. For myotubes experiments, iC2C12-Dux4 were seeded into white 96-well plates (1500 cells per well) in growth medium. After 48 h, cells were differentiated with DMEM, 2% horse serum and 10 μg/mL insulin. […] Inhibition of apoptosis and/or necroptosis was simultaneously realized to DUX4 induction for 24 h using 20 μM of pan-caspase inhibitor Z-VAD.fmk (Merk Chemicals), 30 μM Necrostatin-1, 3 μM GSK872, 0.2 Cyclosporin A (Cambridge Bioscience). Cell survival was determined by CellTiter-Glo luminescent cell viability assay (Promega), membrane permeability by CytoTox-Glo cytotoxicity assay (Promega) and caspase activation by Caspase-Glo 3/7 Assay (Promega) according to the manufacturer's instructions. Luminescence was read by a microplate reader Tecan.\nThe iC2C12-DUX4 viability was assessed for 2 different doses of dox and the results are expressed as the percentage of cells alive in the presence of the different compounds compared to the condition without them. Z-VAD was always added to eliminate any bias linked to caspases 3/7 activation/synergic effect."}, "iC2C12-DUX4 myotubes": {"tested_on": "iC2C12-DUX4 myotubes", "experiment": "cells", "assay_type": "cell-based, mouse", "protocol": "FIG. 4: Ripk3 inhibition decreases DUX4-mediated cell death in iC2C12-DUX4 myotubes. (A) iC2C12-DUX4 viability in presence of dox 1000 ng/ml and treated with different doses of Z-VAD, Necrostatin-1 or GSK'872. (B) Cell viability in presence of dox 1000 ng/ml with the different compounds alone or in combination. Z: Z-vad (20 μM); N: necrostatin-1 (30 μM), N+: necrostatin-1 (90 μM), G: GSK'872 (2 μM); G+: GSK'872 (4 μM).\n(§1) Inducible iC2C12-Dux4 (Bosnakovski, 2008) were cultured in DMEM high glucose with GlutaMAX and no Sodium Pyruvate (Gibco), 20% fetal bovine serum, and 800 μg/mL G418 (Gibco). For myoblast experiments, iC2C12-Dux4 were seeded into white 96-well plates (3000 cells per well) in growth medium. After 24 h, DUX4 expression was induced by adding doxycycline (Sigma-Aldrich) at a final concentration of 50 to 1000 ng/mL. For myotubes experiments, iC2C12-Dux4 were seeded into white 96-well plates (1500 cells per well) in growth medium. After 48 h, cells were differentiated with DMEM, 2% horse serum and 10 μg/mL insulin. DUX4 expression was induced after 4 days of differentiation to not disturb myotube formation (Bosnakovski, 2008). Inhibition of apoptosis and/or necroptosis was simultaneously realized to DUX4 induction for 24 h using 20 μM of pan-caspase inhibitor Z-VAD.fmk (Merk Chemicals), 30 μM Necrostatin-1, 3 μM GSK872, 0.2 Cyclosporin A (Cambridge Bioscience). Cell survival was determined by CellTiter-Glo luminescent cell viability assay (Promega), membrane permeability by CytoTox-Glo cytotoxicity assay (Promega) and caspase activation by Caspase-Glo 3/7 Assay (Promega) according to the manufacturer's instructions. Luminescence was read by a microplate reader Tecan.\nThe effects of the different inhibitors on iC2C12-DUX4 myotubes were investigated. Again, the results are expressed as the percentage of live cells in the presence of the different compounds compared to the control condition without. No effect of Z-VAD were observed arguing against a major role of caspases in DUX4-mediated toxicity (FIG. 4A). When the cells were cultivated with necrostatin-1 in the presence of dox (1000 ng/ml), necrostatin-1 concentrations […] 60 μM conferred a protection against cell death (up to 60%±6 of viable cells in presence of 60 μM necrostatin-1 compared to 39%±1 without, FIG. 4A), necrostatin-1 concentrations of 150 or 300 μM leading to up to 85%±2 viable cells (FIG. 4A). […] The different compounds were next added separately or together to iC2C12-DUX4 myotubes that were incubated with dox (1000 ng/ml). […] Indeed, at low (2 μM) or high (4 μM) concentration, GSK'872 increased cell viability by 2.1 fold (FIG. 4D). […] Ripk3 but also to a lesser extent Ripk1, participated in DUX4-mediated cell toxicity."}, "Caspase 3/7": {"tested_on": "Caspase 3/7", "experiment": "Caspase-Glo 3/7 Assay in iC2C12-DUX4 cells", "assay_type": "cell-based, mouse", "conditions": "Z-Vad 30 μM or 50 μM, different concentrations of doxycycline", "protocol": "FIG. 9: Apoptosis is not involved in iC2C12-DUX4 death. (A) Cell viability on iC2C12-DUX4 myoblasts in the presence of different concentrations of DMSO induced a non-specific increase of cell survival. […] Caspase 3/7 activity was measured using the Caspase-Glo 3/7 Assay (Promega) according to the manufacturer's instructions.\nas §1, with “Inhibition of apoptosis and/or necroptosis was simultaneously realized to DUX4 induction for 24 h using 20 μM of pan-caspase inhibitor Z-VAD.fmk (Merk Chemicals), 30 μM Necrostatin-1, 3 μM GSK872, 0.2 Cyclosporin A (Cambridge Bioscience).” left out"}, "[1]": {"tested_on": "necroptotic genes (Ripk1, Ripk3 and Mlk1) and DUX4-network genes (Tm7sf4, mDuxb1 and Wfdc3)", "experiment": "mRNA expression of necroptotic and DUX4-network genes in treated Actal Cre-FLEx DUX4 mice", "assay_type": "in vivo, mouse", "experimental": "Dabrafenib (30 mg/kg) was given by oral (p.o.) gavage to 4-5 week old Actal Cre-FLEx DUX4 animals 5 times/week for 4 weeks. Tamoxifen was intraperitoneally weakly injected (2 mg/kg). […] Expression of necroptotic genes (Ripk1, Ripk3 and Mlk1) and DUX4-network genes (Tm7sf4, mDuxb1 and Wfdc3) were measured.\nFor muscles, cryopreserved tissues were transferred in tube containing 1.4 mm ceramic beads (FastPrep, MP biomedicals, UK) plus 1 mL of Trizol (Thermo Fisher Scientific, Paisley, UK) and shaken at 10000 rpm for 40 s. Total RNAs from cells or tissue were extracted using Trizol (Thermo Fisher) according the manufacturer's protocol. The quantity of RNA was determined using a nanodrop ND-1000 spectrophotometer (Thermo Scientific, Wilmington, Del., USA). Reverse transcription was performed on 1 μg of total RNA in a 10 μL final volume (Roche Transcriptor First Strand cDNA Synthesis kit). Quantitative PCR (qPCR) was designed according to the MIQE standards. qPCRs were performed on a LightCycler 480 Real-Time PCR System (Roche) in a final volume of 9 with 0.2 μL of RT product, 0.4 μM each of forward and reverse primers (see Tables 2 and 3), and 4.5 μL of SYBRGreen Mastermix (Roche).\nDabrafenib (30 mg/kg) was administered by oral (p.o.) gavage to 4-5 week old animals 5 times/week for 4 weeks. Tamoxifen was intraperitoneally injected weakly (2 mg/kg)."}, "[2]": {"tested_on": "Cre-inducible FLExDUX4 mice", "experiment": "In vivo GSK'872 treatment of tamoxifen-induced Cre-inducible FLExDUX4 mice", "design": "species or system mouse", "conditions": "GSK'872 2 mg/kg for 5 days IP; tamoxifen 10 mg/kg for 2 days IP; mice killed at 7 weeks", "protocol": "Mice were killed at the age of 7 weeks. (A) Total body weight was measured at day 0 and 7. Y-axis represents the weight after tamoxifen at D7 relative to the weight before tamoxifen injection at DO. (BC) Weights of the tibialis anterior (TA) (B) and quadriceps (C) were measured at D7. (DE) Expression levels of 2 genes (Tm7sf4 (D) and DuxBl (E)) downstream of DUX4 were measured in the quadriceps. Y-axis represents arbitrary units relative to Psma2. • * P<0.05, **P<0.01, ***P<0.001, one-way ANOVA followed by a Tukey's multiple comparison test.\nThree-week-old animals were weighted 3 times a week, after weaning. The tamoxifen (MP Biomedicals) injections were realized according to Jones et al (Jones, 2018). Six-week-old mice were injected (IP) with Tamoxifen (TMX) on two consecutive days for a final concentration of 10 mg/kg. Following TMX injection, animals were daily weighed, and sacrificed after a week. Muscles were harvested and frozen in liquid nitrogen or liquid-nitrogen-cooled isopentane for further analysis."}, "[3]": {"conditions": "Mus musculus, Myotube, read-out: viable cells"}}, "note": "Residues, ends and D or L forms follow the SMILES beside them. *: point of attachment. Cbz = O=C(OCc1ccccc1)*; CH2F = FC*", "data": [{"smiles": "COC(=O)C[C@H](NC(=O)[C@H](C)NC(=O)[C@@H](NC(=O)OCc1ccccc1)C(C)C)C(=O)CF", "note": "[Z-VAD] (Cbz-Val-Ala-Asp(OMe)-CH2F)", "values": [{"measurement": "percentage of viable cells", "setting": "iC2C12-DUX4 myoblasts; iC2C12 myoblasts, addition of Z-Vad", "result": "did not modify the percentage of viable cells"}, {"measurement": "cell survival with and without Z-VAD", "setting": "iC2C12-DUX4 myoblasts; myoblasts, 200 ng/ml dox, different doses of Z-VAD", "result": "No change in cell survival"}, {"measurement": "cell survival", "setting": "iC2C12-DUX4 myotubes; iC2C12-DUX4 myotubes, Z-vad added in vitro", "result": "did not increase cell survival"}, {"measurement": "increase of cell survival", "setting": "iC2C12-DUX4 myotubes; myotubes, dox 1000 ng/ml, Z-VAD alone (20 μM)", "result": "10%±10"}, {"measurement": "effect on live cells", "setting": "iC2C12-DUX4 myotubes; myotubes, dox 1000 ng/ml, different doses of Z-VAD", "result": "No effect"}, {"measurement": "caspase 3/7 activity after DUX4 expression", "setting": "Caspase 3/7", "result": "correctly inhibited"}]}, {"smiles": "CN1C(=O)C(Cc2c[nH]c3ccccc23)NC1=S", "note": "(stereo not shown) [necrostatin-1, 5-(1H-indol-3-ylmethyl)-3-methyl-2-sulfanylideneimidazolidin-4-one]", "values": [{"measurement": "increase in the number of viable cells", "setting": "iC2C12-DUX4 myoblasts; iC2C12 myoblasts", "result": 20, "unit": "%"}, {"measurement": "increase of cells survival", "setting": "iC2C12-DUX4 myoblasts; myoblasts, 200 ng/ml dox, necrostatin-1 present, Z-VAD always added", "result": "34%±20"}, {"measurement": "optimal dose from dose response", "setting": "iC2C12-DUX4 myoblasts; myoblasts", "result": 30, "unit": "µM"}, {"measurement": "viability at 60 µM", "setting": "iC2C12-DUX4 myotubes; [3]", "result": 60, "unit": "%"}]}, {"smiles": "Nc1cccc2c(=O)[nH][nH]c(=O)c12.[Na]", "note": "[galavit, 3-aminophthalhydrazide monosodium salt]", "values": [{"measurement": "mean expression of Ripk1, Ripk3, Mlk1, Tm7sf4, mDuxb1 and Wfdc3 relative to untreated control animals", "setting": "[1]; galavit 4.5 mg/kg IP daily for 3 days, 7-8 week old males, tamoxifen 10 mg/kg day 0 and 1", "result": "decreased mean expression of almost all of these genes"}]}, {"smiles": "CC(C)(C)c1nc(-c2cccc(NS(=O)(=O)c3c(F)cccc3F)c2F)c(-c2ccnc(N)n2)s1", "note": "[dabrafenib, N-{3-[5-(2-aminopyrimidin-4-yl)-2-tert-butylthiazol-4-yl]-2-fluorophenyl}-2,6-difluorobenzenesulfonamide]", "values": [{"measurement": "mean expression of Ripk1, Ripk3, Mlk1, Tm7sf4, mDuxb1 and Wfdc3 relative to untreated control animals", "setting": "[1]; dabrafenib 30 mg/kg p.o. 5 times/week for 4 weeks, 4-5 week old animals, tamoxifen 2 mg/kg", "result": "decreased mean expression of almost all of these genes"}]}, {"smiles": "CC(C)S(=O)(=O)c1ccc2nccc(Nc3ccc4scnc4c3)c2c1", "note": "[GSK'872, Benzothiazol-5-yl-[6-(propane-2-sulfonyl)-quinolin-4-yl]-amine]", "values": [{"measurement": "increase in the number of viable cells", "setting": "iC2C12-DUX4 myoblasts; iC2C12 myoblasts", "result": 10, "unit": "%"}, {"measurement": "optimal dose from dose response", "setting": "iC2C12-DUX4 myoblasts; myoblasts", "result": 3, "unit": "µM"}, {"measurement": "viability at 3 µM", "setting": "iC2C12-DUX4 myotubes; [3]", "result": 67, "unit": "%"}, {"measurement": "viability at 6 µM", "setting": "iC2C12-DUX4 myotubes; [3]", "result": 77, "unit": "%"}, {"measurement": "increase of the number of viable cells", "setting": "iC2C12-DUX4 myotubes; iC2C12-DUX4 myotubes, GSK'872 in combination with Z-Vad", "result": 2, "unit": "fold"}, {"measurement": "increase of cell viability", "setting": "iC2C12-DUX4 myotubes; myotubes, dox 1000 ng/ml, GSK'872 low (2 μM) or high (4 μM) concentration", "result": 2.1, "unit": "fold"}, {"measurement": "DUX4-mediated cell death in vivo", "setting": "[2]", "result": "decreased DUX4-mediated cell death in vivo"}]}]}
